Reference: patent US20230339970A1, “CASEIN KINASE 1 DELTA MODULATORS” (priority 2020, published 2023)

Columns and labels:
human CSNK1D = target: T1, human CSNK1D (Homo sapiens, UniProt P48730); assay: Whole Cell nBRET CSNK1D Binding Assay; conditions: living CHO cells stably expressing human CSNK1D tagged with nanoluciferase; NanoBret tracer 130 nM; 2 hours at 37 C
T1 construct: expressed in transfected cells

[1] = target: T2, human recombinant GST cleaved CSNK1D (Homo sapiens, UniProt P48730); assay: Purified Enzyme Assay (ADP-Glo CSNK1D Kinase Assay); assay type: biochemical; conditions: 2 nM CSNK1D; peptide substrate 150 μM; ATP 20 μM; 45 minutes at room temperature
T2 construct: GST (cleaved yes); purchased University of Dundee clone DU 19064
Method in brief: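 Percent activity derived from ADP-Glo quantification of ADP produced. Reactions: compound dose-response with human recombinant GST-cleaved CSNK1D, ATP and substrate peptide PLSRTL-pS-VASLPGL, incubated 45 min at room temperature.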

T2 sequence (P48730 whole entry): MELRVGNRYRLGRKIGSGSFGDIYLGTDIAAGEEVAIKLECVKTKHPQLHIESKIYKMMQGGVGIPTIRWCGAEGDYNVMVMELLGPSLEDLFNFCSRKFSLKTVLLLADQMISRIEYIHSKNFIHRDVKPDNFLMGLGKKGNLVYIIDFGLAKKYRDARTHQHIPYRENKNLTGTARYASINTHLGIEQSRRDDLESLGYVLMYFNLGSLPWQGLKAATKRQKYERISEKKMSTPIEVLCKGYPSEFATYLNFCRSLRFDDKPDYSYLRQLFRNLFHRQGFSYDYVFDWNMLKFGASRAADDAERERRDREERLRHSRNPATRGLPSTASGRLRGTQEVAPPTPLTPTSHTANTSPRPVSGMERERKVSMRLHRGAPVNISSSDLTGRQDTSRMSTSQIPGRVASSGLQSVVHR
T1 sequence (P48730 whole entry): as above

Compound | IC50 (human CSNK1D) [nM] | IC50 [1] [nM]
CC1(C)Cn2nc(-c3ccc(F)cn3)c(-c3ccncc3)c2CO1 [Example 128, 2-(5-Fluoropyridin-2-yl)-6,6-dimethyl-3-(pyridin-4-yl)-6,7-dihydro-4H-pyrazolo[5,1-c][1,4]oxazine] | 244 | 13
CC(=O)Nc1cc(-c2c(-c3ccc(F)cc3)nn3c2CC[C@@H]2[C@H]3C2(F)F)ccn1 (stereo in doubt) [Example 349, N-(4-((5a*R,6a*S-6,6-Difluoro-2-(4-fluorophenyl)-5,5a,6,6a-tetrahydro-4H-cyclopropa[e]pyrazolo[1,5-a]pyridin-3-yl)pyridin-2-yl)acetamide] | 74 | 8
Fc1ccc(-c2nn3c(c2-c2ccnc4[nH]ncc24)CCC2C3C2(F)F)nc1 (racemic) [Example 58, (Racemic) 6,6-Difluoro-2-(5-fluoropyridin-2-yl)-3-(1H-pyrazolo[3,4-b]pyridin-4-yl)-5,5a,6,6a-tetrahydro-4H-cyclopropa[e]pyrazolo[1,5-a]pyridine] | 65 | 5
Cc1cc(-c2c(-c3ccc(F)cn3)nn3c2COCC3)c2cn[nH]c2n1 [Example 79, 2-(5-Fluoro-2-pyridyl)-3-(6-methyl-1H-pyrazolo[3,4-b]pyridin-4-yl)-6,7-dihydro-4H-pyrazolo[5,1-c][1,4]oxazine] | 227 | 7
Fc1ccc(-c2nn3c(c2-c2c(F)cnc4[nH]ncc24)CCC(F)(F)C3)cc1 [Example 280, 4-(6,6-difluoro-2-(4-fluorophenyl)-4,5,6,7-tetrahydropyrazolo[1,5-a]pyridin-3-yl)-5-fluoro-1H-pyrazolo[3,4-b]pyridine] | 19 | 4
Fc1ccc(-c2nn3c(c2-c2ccnc4[nH]ncc24)OCCCC3)nc1 [Example 218, 2-(5-Fluoro-2-pyridyl)-3-(1H-pyrazolo[3,4-b]pyridin-4-yl)-5,6,7,8-tetrahydropyrazolo[5,1-b][1,3]oxazepane] | 239 | 12
Fc1ccc(-c2nn3c(c2-c2ccnc4[nH]ncc24)[C@H]2CC[C@@H]3C2)cc1 (single isomer, unassigned) [Example 61] | 21 | 5
COCC1(F)CCc2c(-c3cc(C(F)F)nc4[nH]ncc34)c(-c3ccc(F)cn3)nn2C1 (single isomer, unassigned) [Example 307, (*R)-6-(Difluoromethyl)-4-[6-fluoro-2-(5-fluoro-2-pyridyl)-6-(methoxymethyl)-5,7-dihydro-4H-pyrazolo[1,5-a]pyridin-3-yl]-1H-pyrazolo[3,4-b]pyridine] | > 10000 | 183
Cc1nc2[nH]ncc2c(-c2c(-c3ccc(F)cn3)nn3c2CO[C@](C)(C(F)(F)F)C3)c1F (single isomer, unassigned) [Example 421, (*S)-3-(5-Fluoro-6-methyl-1H-pyrazolo[3,4-b]pyridin-4-yl)-2-(5-fluoropyridin-2-yl)-6-methyl-6-(trifluoromethyl)-6,7-dihydro-4H-pyrazolo[5,1-c][1,4]oxazine] | 682 | 36
Fc1ccc(-c2nn3c(c2-c2ccnc4[nH]ncc24)C[C@@H]2C[C@@H]23)cc1 [Example 268, (4aS,5aS)-2-(4-Fluorophenyl)-3-(1H-pyrazolo[3,4-b]pyridin-4-yl)-4,4a,5,5a-tetrahydrocyclopropa[4,5]pyrrolo[1,2-b]pyrazole] | 5 | 1
COC1(C)COCc2c(-c3ccnc4[nH]ncc34)c(-c3ccc(F)cn3)nn2C1 (single isomer, unassigned) [Example 485, (*S)-2-(5-Fluoropyridin-2-yl)-7-methoxy-7-methyl-3-(1H-pyrazolo[3,4-b]pyridin-4-yl)-7,8-dihydro-4H,6H-pyrazolo[5,1-c][1,4]oxazepine] | 8060 | 370
Cc1n[nH]c2nccc(-c3c(-c4ccc(F)cc4)nn4c3COC(C(F)(F)F)C4)c12 (single isomer, unassigned) [Example 373, (*R)-2-(4-Fluorophenyl)-3-(3-methyl-1H-pyrazolo[3,4-b]pyridin-4-yl)-6-(trifluoromethyl)-6,7-dihydro-4H-pyrazolo[5,1-c][1,4]oxazine] | > 10000 | 306
Cc1cc(-c2c(-c3ccc(F)cn3)nn3c2O[C@H](C)C[C@H]3C)c2cn[nH]c2n1 (single isomer, unassigned) [Example 208, (5*R,7*R)-2-(5-Fluoro-2-pyridyl)-5,7-dimethyl-3-(6-methyl-1H-pyrazolo[3,4-b]pyridin-4-yl)-6,7-dihydro-5H-pyrazolo[5,1-b][1,3]oxazine] | 821 | 26
Fc1ccc(-c2nn3c(c2-c2c(F)cnc4[nH]ncc24)CC(F)(F)CC3)cc1 [Example 278, 4-[5,5-Difluoro-2-(4-fluorophenyl)-6,7-dihydro-4H-pyrazolo[1,5-a]pyridin-3-yl]-5-fluoro-1H-pyrazolo[3,4-b]pyridine] | 64 | 7
Cc1cc(-c2c(-c3ccc(F)cc3)nn3c2C[C@@H]2C[C@@H]23)c2cn[nH]c2n1 [Example 270] | 8 | 1
Cc1cc(-c2c(-c3ccc(F)cn3)nn3c2CNCC3)c2cn[nH]c2n1 [Example 2, 4-[2-(5-Fluoro-2-pyridyl)-4,5,6,7-tetrahydropyrazolo[1,5-a]pyrazin-3-yl]-6-methyl-1H-pyrazolo[3,4-b]pyridine] | 528 | 19
[2H]C([2H])([2H])OC([2H])([2H])[C@]1(F)CCc2c(-c3cc(C)nc4[nH]ncc34)c(-c3ccc(F)cn3)nn2C1 (single isomer, unassigned) [Example 312, (*S)-4-[6-[(Methoxy-d3)methyl-d2]-6-fluoro-2-(5-fluoro-2-pyridyl)-5,7-dihydro-4H-pyrazolo[1,5-a]pyridin-3-yl]-6-methyl-1H-pyrazolo[3,4-b]pyridine] | 39 | 4
COCC1(C)CCc2c(-c3cc(C)nc4[nH]ncc34)c(-c3ccc(F)cn3)nn2C1 (single isomer, unassigned) [Example 56, (*R)-4-(2-(S-Fluoropyridin-2-yl)-6-(methoxymethyl)-6-methyl-4,5,6,7-tetrahydropyrazolo[1,5-a]pyridin-3-yl)-6-methyl-1H-pyrazolo[3,4-b]pyridine] | 63 | 3
Fc1ccc(-c2nn3c(c2-c2ccnc4[nH]ncc24)C[C@H]2[C@@H](C3)C2(F)F)cc1 (stereo in doubt) [Example 363, (4a*S,5a*S)-5,5-Difluoro-2-(4-fluorophenyl)-3-(1H-pyrazolo[3,4-b]pyridin-4-yl)-4a,5,5a,6-tetrahydro-4H-cyclopropa[d]pyrazolo[1,5-a]pyridine] | 1410 | 60
[2H]C([2H])([2H])C1(C([2H])([2H])[2H])Cn2nc(-c3ccc(F)cn3)c(-c3c(F)c(C)nc4[nH]nc(Cl)c34)c2CO1 [Example 408, 3-(3-Chloro-5-fluoro-6-methyl-1H-pyrazolo[3,4-b]pyridin-4-yl)-2-(5-fluoropyridin-2-yl)-6,6-bis(methyl-d3)-6,7-dihydro-4H-pyrazolo[5,1-c][1,4]oxazine] | 26 | 6
Fc1ccc(-c2nn3c(c2-c2ccnc4[nH]ncc24)CCC2(C3)CC2(F)F)cc1 (single isomer, unassigned) [Example 326, (*S)-2,2-Difluoro-2′-(4-fluorophenyl)-3′-1H-pyrazolo[3,4-b]pyridin-4-yl)-4′,5′-dihydro-7′H-spiro[cyclopropane-1,6′-pyrazolo[1,5-a]pyridine]] | 23 | 6
Fc1ccc(-c2nn3c(c2-c2ccnc4[nH]ncc24)CC2(CC2)C3)cc1 [Example 247, 2-(4-Fluorophenyl)-3-(1H-pyrazolo[3,4-b]pyridin-4-yl)spiro[4,6-dihydropyrrolo[1,2-b]pyrazole-5,1′-cyclopropane]] | 13 | 2
Cc1nc2[nH]nc(C)c2c(-c2c(-c3ccc(F)cn3)nn3c2CC2(C3)CC2(F)F)c1F (single isomer, unassigned) [Example 265, (*R)-1′.1′-Difluoro-3-(5-fluoro-3,6-dimethyl-1H-pyrazolo[3,4-b]pyridin-4-yl)-2-(5-fluoro-2-pyridyl)spiro[4,6-dihydropyrrolo[1,2-b]pyrazole-5,2′-cyclopropane]] | 37 | 10
C[C@H]1OCCn2nc(-c3ccc(F)cn3)c(-c3ccnc4[nH]ccc34)c21 [Example 80, (R)-2-(5-Fluoropyridin-2-yl)-4-methyl-3-(1H-pyrrolo[2,3-b]pyridin-4-yl)-6,7-dihydro-4H-pyrazolo[5,1-c][1,4]oxazine] | 3060 | 18
Cc1cc(-c2c(-c3ccc(F)cc3)nn3c2CO[C@@H](C)C3)c2cn[nH]c2n1 (single isomer, unassigned) [Example 83, (*S)-2-(4-Fluorophenyl)-6-methyl-3-(6-methyl-1H-pyrazolo[3,4-b]pyridin-4-yl)-6,7-dihydro-4H-pyrazolo[5,1-c][1,4]oxazine] | 34 | 3
Cc1nc2[nH]ncc2c(-c2c(-c3ccc(F)cn3)nn3c2CC[C@@]2(C3)CC2(F)F)c1F (single isomer, unassigned) [Example 331, (*S)-2,2-Difluoro-3′-(5-fluoro-6-methyl-1H-pyrazolo[3,4-b]pyridin-4-yl)-2′-(5-fluoropyridin-2-yl)-4′,5′-dihydro-7′H-spiro[cyclopropane-1,6′-pyrazolo[1,5-a]pyridine]] | 89 | 18
CC1(C)Cn2nc(-c3ccc(F)cn3)c(-c3ccnc4[nH]cc(C#N)c34)c2CO1 [Example 148, 4-(2-(5-Fluoropyridin-2-yl)-6,6-dimethyl-6,7-dihydro-4H-pyrazolo[5,1-c][1,4]oxazin-3-yl)-1H-pyrrolo[2,3-b]pyridine-3-carbonitrile] | 3280 | 59
